Measured values from patent publication US20150031655A1, “COMBINATION OF LIVER X RECEPTOR MODULATOR AND ESTROGEN RECEPTOR MODULATOR FOR THE TREATMENT OF AGE-RELATED DISEASES” (UNIVERSITY OF NORTH DAKOTA, priority 2011, published 2015).

Assays:
TH = test: Western blot of TH protein levels in SH-SY5Y neuroblastoma cells; assay type: cell-based, human; settings: for TH protein levels / TH expression: 24 h, treatment alone vs control (10 μM 27-OHC, 1 nM estradiol, 10 μM GW3965, 10 μM ECHS)
Description: (§1) Human neuroblastoma SH-SY5Y cells were grown in DMEM/F12 medium containing 10% fetal bovine serum (FBS) and 1% antibiotic/antimycotic mix. Cells were maintained at 37° C. in a saturated humidity atmosphere containing 95% air and 5% CO2.
(§2) Treated SH-SY5Y cells were washed with PBS and trypsinized to collect the cells and centrifuged at 5000 g. The pellet was washed again with PBS and homogenized in NE-PER tissue protein extraction reagent (Thermo Scientific, Rockford, Ill.) supplemented with protease and phosphatase inhibitors. Protein concentrations from the cytosolic and nuclear homogenates were determined with BCA protein assay.
(§3) Proteins (10 μg) were separated on SDS-PAGE gels, transferred to a polyvinylidene difluoride membrane (BioRad, Hercules, Calif.), and incubated with the following monoclonal antibodies: anti-TH mouse antibody (1:1000; Sigma Aldrich, Saint Louis, Mo.), anti-α-synuclein mouse antibody (1:500; Chemicon, Temecula, Calif.), anti-ERα rabbit antibody (1:500; Abcam, Cambridge, Mass.), anti-ERβ rabbit antibody (1:200; Upstate, Lake Placid, N.Y.), anti-LXRα rabbit antibody (1:500; Abcam, Cambridge, Mass.), anti-LXRβ mouse antibody (1:500; Abcam, Cambridge, Mass.).
(§4) β-actin and Lamin A were used as a gel loading control for cytosolic homogenates and nuclear homogenates respectively. The blots were developed with enhanced chemiluminescence (Immmun-star HRP chemiluminescent kit, Bio-Rad, Hercules, Calif.). Bands were visualized on a polyvinylidene difluoride membrane and analyzed by LabWorks 4.5 software on a UVP Bioimaging System (Upland, Calif.). Quantification of results was performed by densitometry and the results analyzed as total integrated densitometric values (arbitrary units).

α-synuclein = test: Western blot of α-synuclein protein levels in SH-SY5Y cells; assay type: cell-based, human; settings: for increase in α-synuclein protein / expression levels / 27-OHC-induced increase in α-synuclein protein levels: 24 h; for 27-OHC-induced increase in α-synuclein protein levels: co-treatment with 10 μM 27-OHC
Description: as §1, §2, §3, §4

α-synuclein mRNA = test: Real time RT-PCR of α-synuclein mRNA in SH-SY5Y cells; assay type: cell-based, human; settings: for increase in α-synuclein mRNA expression: 24 h; for 27-OHC-induced increase in α-synuclein mRNA: co-treatment with 10 μM 27-OHC
Description: as §1
Total RNA was isolated and extracted from treated cells using the 5 prime “PerfectPure RNA tissue kit” (5 Prime, Inc., Gaithersburg, Md.). RNA estimation was performed using “Quant-iT RNA Assay Kit” using a Qubit fluorometer according to the manufacturer's protocol (Invitrogen, Carlsbad, Calif.). cDNA was synthesized by reverse transcribing 1 μg of extracted RNA using an “iScript cDNA synthesis kit” (BioRad, Hercules, Calif.). The oligomeric primers (Sigma, St Louis, Mo.) used to amplify the TH mRNA and α-synuclein mRNA are enumerated in Table 1. The cDNA amplification was performed using an iQ SYBR Green Supermix kit following the manufacturer's instructions (BioRad, Hercules, Calif.). The amplification was performed using an iCycler iQ Multicolor Real Time PCR Detection System (BioRad, Hercules, Calif.). The expression of specific TH and α-synuclein transcripts amplified were normalized to the expression of glyceraldehyde-3-phosphate dehydrogenase (GAPDH).

LXRβ = target: T1, LXRβ (Homo sapiens, UniProt P55055); test: Western blot of LXRβ levels in the nucleus, SH-SY5Y cells; assay type: cell-based; design: endogenous in cells; host or cells: SH-SY5Y human neuroblastoma cells; settings: for LXRβ protein levels in the nucleus: 24 h, treatment alone vs control
T1 sequence (P55055 1-460): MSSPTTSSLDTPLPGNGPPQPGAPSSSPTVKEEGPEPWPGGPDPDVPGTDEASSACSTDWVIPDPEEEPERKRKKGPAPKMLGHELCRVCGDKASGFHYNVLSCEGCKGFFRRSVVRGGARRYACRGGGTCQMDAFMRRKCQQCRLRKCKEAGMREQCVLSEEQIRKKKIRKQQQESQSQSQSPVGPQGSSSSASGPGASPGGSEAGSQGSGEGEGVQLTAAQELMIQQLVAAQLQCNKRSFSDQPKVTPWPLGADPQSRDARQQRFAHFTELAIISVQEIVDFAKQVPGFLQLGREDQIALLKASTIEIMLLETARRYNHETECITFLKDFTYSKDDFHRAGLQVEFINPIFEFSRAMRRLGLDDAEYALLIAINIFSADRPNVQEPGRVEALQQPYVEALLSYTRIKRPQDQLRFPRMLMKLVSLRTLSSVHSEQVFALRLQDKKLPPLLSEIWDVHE
Description: as §1, §2, §3, §4

LXRβ protein levels in the nucleus (LXRβ)	27-OHC-induced increase in LXRβ in the nucleus (LXRβ; co-treatment with 10 μM 27-OHC)	Structure (SMILES)	TH protein levels / TH expression (TH)	increase in α-synuclein protein / expression levels (α-synuclein; treatment alone vs control)	increase in α-synuclein mRNA expression (α-synuclein mRNA; treatment alone vs control)	effect of estradiol on 27-OHC-induced decrease in TH expression (TH; ECHS added to 27-OHC+estradiol)	TH expression (TH; in combination with estradiol)	27-OHC-induced increase in α-synuclein protein levels (α-synuclein)	basal α-synuclein expression levels (α-synuclein; treatment alone vs control)	27-OHC-induced increase in α-synuclein mRNA (α-synuclein mRNA)	α-synuclein mRNA levels (α-synuclein mRNA; treatment alone vs control)
reduced	significantly attenuated	CC(C)CCC[C@@H](C)[C@H]1CC[C@H]2[C@@H]3C[C@@H]4O[C@@]45C[C@@H](OS(=O)(=O)O)CC[C@]5(C)[C@H]3CC[C@]12C [ECHS, 5α,6α-epoxycholesterol-3-sulfate]	no effect	–	–	does not alter	no effect	significantly attenuated	does not produce any effect	marked attenuation	no effect
more pronounced increase	–	Cl.O=C(O)Cc1cccc(OCCCN(Cc2cccc(C(F)(F)F)c2Cl)CC(c2ccccc2)c2ccccc2)c1 [GW3965, 3-[3-[N-(2-Chloro-3-trifluoromethylbenzyl)-(2,2-diphenylethyl)amino]propyloxy]phenylacetic acid hydrochloride]	no effect	3 fold	10 fold	–	–	accentuates	–	not mRNA levels	–

Structure (SMILES)	LXRβ protein levels in the nucleus (LXRβ)	27-OHC-induced increase in LXRβ in the nucleus (LXRβ; co-treatment with 10 μM 27-OHC)	TH protein levels / TH expression (TH)	increase in α-synuclein protein / expression levels (α-synuclein; treatment alone vs control)	increase in α-synuclein mRNA expression (α-synuclein mRNA; treatment alone vs control)	effect of estradiol on 27-OHC-induced decrease in TH expression (TH; ECHS added to 27-OHC+estradiol)	TH expression (TH; in combination with estradiol)	27-OHC-induced increase in α-synuclein protein levels (α-synuclein)	basal α-synuclein expression levels (α-synuclein; treatment alone vs control)	27-OHC-induced increase in α-synuclein mRNA (α-synuclein mRNA)	α-synuclein mRNA levels (α-synuclein mRNA; treatment alone vs control)
C[C@@H](CO)CCC[C@@H](C)[C@H]1CC[C@H]2[C@@H]3CC=C4C[C@@H](O)CC[C@]4(C)[C@H]3CC[C@]12C [27-OHC, 27-hydroxycholesterol]	increases	–	significant decrease	2.3 fold	9 fold	–	–	–	–	–	–
